Values of other authors as cited in patent publication US5705486A, “Isolation of novel peptides from green barley leaf extract and use same to inhibit human platelet aggregation” (Hagiwara; Yoshihide, priority 1996, dated 1998).

Tested on: rat anterior pituitary cells
Settings: in vitro

Question: For `Cc1c(C)c2c(c(C)c1OC(=O)CCC(=O)O)CC[C@@](C)(CCC[C@H](C)CCC[C@H](C)CCCC(C)C)O2` [α-tocopherol succinate], which “release of growth hormone and/or prolactin from rat anterior pituitary cells” value (Badamchian et al 1994) is on record?
Answer: The value was “enhances the release”.

Question: What about the “prolactin release from rat anterior pituitary cells” value (Badamchian et al 1995) of the same compound?
Answer: Its value is “significant increase”.
